Results on 25 compounds are retold here after patent US12037344B2, “NLRP3 modulators” (INNATE TUMOR IMMUNITY, INC., priority 2018, dated 2024).

One assay relates to THP-1 cells. The experiment in a line: Measurement of IL-1β production, hTRF protocol (second alternative procedure), THP-1 cells. It counts as cell-based, human. The settings on record: Homo sapiens. Put shortly: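 THP-1 cells differentiated overnight with 50 ng/ml PMA, then plated at 50,000 cells/well in RPMI with 2% FBS onto serial compound dilutions (top final concentration 10 μM) for 2 hours at 37° C. Supernatant IL-1β measured by hTRF (antibodies at 1:40, overnight at 4° C), read at 665/615 nm against a standard curve.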

For the next assay, the target named is T1, TLR8 (Homo sapiens, UniProt Q9NR97).
T1 construct: human HEK-Blue cells co-expressing a TLR7 or TLR8 gene
T1 sequence (Q9NR97 27-1041): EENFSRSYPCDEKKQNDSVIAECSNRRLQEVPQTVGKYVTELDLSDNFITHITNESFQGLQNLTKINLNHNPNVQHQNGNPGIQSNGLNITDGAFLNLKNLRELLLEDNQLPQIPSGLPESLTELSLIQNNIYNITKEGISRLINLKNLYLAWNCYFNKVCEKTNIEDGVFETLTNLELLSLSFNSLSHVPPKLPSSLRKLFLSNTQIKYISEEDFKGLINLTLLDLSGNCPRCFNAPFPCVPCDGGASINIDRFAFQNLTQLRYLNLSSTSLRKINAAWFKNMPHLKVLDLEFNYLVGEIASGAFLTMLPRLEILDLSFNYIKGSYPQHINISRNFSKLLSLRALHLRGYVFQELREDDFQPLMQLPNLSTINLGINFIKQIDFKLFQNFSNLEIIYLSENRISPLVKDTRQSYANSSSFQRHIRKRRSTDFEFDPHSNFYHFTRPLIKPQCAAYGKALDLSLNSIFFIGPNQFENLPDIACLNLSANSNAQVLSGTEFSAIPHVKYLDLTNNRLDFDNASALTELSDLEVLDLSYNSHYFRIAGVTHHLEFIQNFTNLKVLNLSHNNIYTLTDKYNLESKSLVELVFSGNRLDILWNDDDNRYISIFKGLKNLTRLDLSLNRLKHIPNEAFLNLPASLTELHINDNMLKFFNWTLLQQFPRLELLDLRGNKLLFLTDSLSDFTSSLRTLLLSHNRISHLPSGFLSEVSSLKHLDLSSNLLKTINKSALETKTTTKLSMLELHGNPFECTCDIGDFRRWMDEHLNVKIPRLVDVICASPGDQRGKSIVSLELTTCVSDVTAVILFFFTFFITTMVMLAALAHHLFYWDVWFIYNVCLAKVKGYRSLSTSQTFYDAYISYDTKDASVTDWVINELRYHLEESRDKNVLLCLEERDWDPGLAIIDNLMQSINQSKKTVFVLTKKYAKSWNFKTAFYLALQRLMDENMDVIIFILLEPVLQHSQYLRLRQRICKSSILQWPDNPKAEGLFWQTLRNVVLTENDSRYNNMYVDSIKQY
The experiment in a line: In vitro human TLR8 binding reporter assay (HEK-Blue, NF-kB/AP1-inducible SEAP). It counts as cell-based. The settings on record: activity range class, read-out: TLR8 Agonist EC50. Put shortly: (§1)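 HEK-Blue cells expressing human TLR7 or TLR8 with NF-kB/AP1-inducible SEAP reporter, plated 24 h, then compound-treated 18 h at 37° C, 5% CO2. EC50 normalized to 100% Ymax set by 50 μM reference standard.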

The next assay concerns the target T2, TLR7 (Homo sapiens, UniProt Q9NYK1).
T2 construct: human HEK-Blue cells co-expressing a TLR7 or TLR8 gene
T2 sequence (Q9NYK1 27-1049): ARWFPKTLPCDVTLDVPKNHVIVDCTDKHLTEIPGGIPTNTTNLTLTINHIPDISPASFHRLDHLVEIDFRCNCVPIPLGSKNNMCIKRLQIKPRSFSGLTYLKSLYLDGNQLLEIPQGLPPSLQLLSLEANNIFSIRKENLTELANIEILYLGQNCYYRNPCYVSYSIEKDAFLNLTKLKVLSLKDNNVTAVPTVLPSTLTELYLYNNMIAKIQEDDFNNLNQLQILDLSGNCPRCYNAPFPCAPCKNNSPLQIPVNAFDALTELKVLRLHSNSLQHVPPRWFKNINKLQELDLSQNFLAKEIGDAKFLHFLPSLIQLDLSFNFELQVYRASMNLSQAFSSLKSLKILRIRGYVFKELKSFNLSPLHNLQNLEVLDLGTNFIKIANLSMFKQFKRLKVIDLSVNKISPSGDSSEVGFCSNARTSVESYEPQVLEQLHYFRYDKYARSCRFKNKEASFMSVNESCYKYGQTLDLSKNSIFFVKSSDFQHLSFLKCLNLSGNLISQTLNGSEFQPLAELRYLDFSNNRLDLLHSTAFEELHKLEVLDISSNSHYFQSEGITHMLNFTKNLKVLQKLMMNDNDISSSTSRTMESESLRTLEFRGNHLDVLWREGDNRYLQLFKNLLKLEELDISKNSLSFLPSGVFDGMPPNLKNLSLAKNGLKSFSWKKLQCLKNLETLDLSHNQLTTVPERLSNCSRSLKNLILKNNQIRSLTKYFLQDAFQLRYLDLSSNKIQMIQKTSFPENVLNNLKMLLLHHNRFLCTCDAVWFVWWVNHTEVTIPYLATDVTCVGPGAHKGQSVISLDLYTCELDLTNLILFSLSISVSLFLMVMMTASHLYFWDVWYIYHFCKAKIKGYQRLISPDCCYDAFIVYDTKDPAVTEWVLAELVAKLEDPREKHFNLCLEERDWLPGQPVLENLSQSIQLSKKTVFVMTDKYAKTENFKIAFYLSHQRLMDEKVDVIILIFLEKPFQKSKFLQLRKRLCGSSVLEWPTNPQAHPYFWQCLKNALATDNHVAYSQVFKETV
The experiment in a line: In vitro human TLR7 binding reporter assay (HEK-Blue, NF-kB/AP1-inducible SEAP). It counts as cell-based. To be noted: activity range class, read-out: TLR7 Agonist EC50. In a few lines:
as §1
A general note: In a reporter assay the amount or activity of a reporter protein is the signal.

Where [1] appears, read: THP-1, IL-1β production, human, read-out: NLRP3 hILIB EC50.

Each structure is given as a SMILES string. pEC50: −log10 of the molar value. Read-outs that look alike come from different tables or passages of the source.

For the compound `Nc1nc2cc(-c3ccn[nH]3)ccc2c2oc(CCCO)nc12` [Example 147, 3-[4-amino-7-(1H-pyrazol-3-yl)-[1,3]oxazolo[4,5-c]quinolin-2-yl]propan-1-ol], the negative logarithm of the EC50 (pEC50) was 5.22 with THP-1 cells (THP-1, read-out: NLRP3 hILIB EC50); less than 4.00 at TLR8; less than 4.00 on TLR7.
Turning to `NCCn1cc2c(N)nc3cc(-c4cc[nH]n4)ccc3c2n1` [Example 149, 2-(2-aminoethyl)-7-(1H-pyrazol-3-yl)-2H-pyrazolo[4,3-c]quinolin-4-amine], the results for the pEC50 in the assay on THP-1 cells (setting [1]), at TLR8 and on TLR7 were 6.42, less than 4.00 and less than 4.00, respectively.
For `Nc1nc2cc(-c3cc[nH]n3)ccc2c2nn(CCNC(=O)c3ccccn3)cc12` [Example 150, N-{2-[4-amino-7-(1H-pyrazol-3-yl)-2H-pyrazolo[4,3-c]quinolin-2-yl]ethyl}pyridine-2-carboxamide], the pEC50 is 7.15 in the assay with THP-1 cells (setting [1]), less than 4.00 on TLR8 and less than 4.00 at TLR7.
In the case of `Nc1nc2cc(-c3cc[nH]n3)ccc2c2nn(CCNC(=O)c3csc(Cl)n3)cc12` [Example 151, N-{2-[4-amino-7-(1H-pyrazol-3-yl)-2H-pyrazolo[4,3-c]quinolin-2-yl]ethyl}-2-chloro-1,3-thiazole-4-carboxamide], the results for the pEC50 in the assay with THP-1 cells (setting [1]), on TLR8 and on TLR7 were 7.22, less than 4.00 and less than 4.00, respectively.
With `CN(C)CCc1cc2c(N)nc3cc(-c4ccn[nH]4)ccc3c2[nH]1` [Example 153, 2-[2-(dimethylamino)ethyl]-7-(1H-pyrazol-5-yl)-1H-pyrrolo[3,2-c]quinolin-4-amine], the pEC50 was 6.15 in the assay with THP-1 cells (setting [1]), less than 4.00 at TLR8 and less than 4.00 at TLR7.
In the case of `CCC(=O)NCCc1cc2c(N)nc3cc(-c4ccn[nH]4)ccc3c2[nH]1` [Example 154, N-{2-[4-amino-7-(1H-pyrazol-5-yl)-1H-pyrrolo[3,2-c]quinolin-2-yl]ethyl}propanamide], the negative logarithm of the EC50 (pEC50) in the assay with THP-1 cells (setting [1]) is 6.00; on TLR8, less than 4.00; on TLR7 it was less than 4.00.
Consider `Nc1nc2cc(-c3ccn[nH]3)ccc2c2[nH]c(CCNC(=O)c3ccccn3)cc12` [Example 155, N-[2-[4-amino-7-(1H-pyrazol-5-yl)-1H-pyrrolo[3,2-c]quinolin-2-yl]ethyl]pyridine-2-carboxamide], for which the figures for the negative logarithm of the EC50 (pEC50) in the assay with THP-1 cells (setting [1]), at TLR8 and at TLR7 were 8.00, less than 4.00 and less than 4.00, respectively.
Regarding `Nc1nc2cc(-c3ccn[nH]3)ccc2c2[nH]c(CC3CCCO3)cc12` (stereo not drawn) [Example 156, 2-[(oxolan-2-yl)methyl]-7-(1H-pyrazol-5-yl)-1H-pyrrolo[3,2-c]quinolin-4-amine], the negative-log EC50 (pEC50) with THP-1 cells (setting [1]) is 6.51; at TLR8, less than 4.00; on TLR7 it was less than 4.00.
As for `CC(C)(F)C(=O)NCCn1nc2c(N)nc3cc(-c4ccn[nH]4)ccc3c2n1` [Example 157, N-{2-[4-amino-7-(1H-pyrazol-5-yl)-2H-[1,2,3]triazolo[4,5-c]quinolin-2-yl]ethyl}-2-fluoro-2-methylpropanamide], the negative logarithm of the EC50 (pEC50) in the assay on THP-1 cells (setting [1]) was 5.29; at TLR8, less than 4.00; on TLR7, less than 4.00.
`Nc1nc2cc(-c3ccn[nH]3)ccc2c2nn(CCNC(=O)c3csc(Cl)n3)nc12` [Example 158]: the pEC50 is 6.01 in the assay on THP-1 cells (setting [1]), 4.00 to 4.70 on TLR8 and less than 4.00 on TLR7.
The corresponding values for `Nc1nc2cc(-c3ccn[nH]3)ccc2c2nn(CCNC(=O)c3ccccn3)nc12` [Example 159] are 6.17, less than 4.00 and less than 4.00.
Regarding `Nc1nc2cc(-c3ccn[nH]3)ccc2c2nn(CCNC(=O)c3ccc(F)cn3)nc12` [Example 160], the negative-log EC50 (pEC50) with THP-1 cells (setting [1]) was 6.15; at TLR8, less than 4.00; on TLR7, less than 4.00.
As for `CN(C)CCn1nc2c(N)nc3cc(-c4ccn[nH]4)ccc3c2n1` [Example 161], the pEC50 in the assay on THP-1 cells (setting [1]) was 5.24; on TLR8, less than 4.00; on TLR7, less than 4.00.
`COCCn1nc2c(N)nc3cc(-c4ccn[nH]4)ccc3c2n1` [Example 162]: the figures for the pEC50 in the assay with THP-1 cells (setting [1]), on TLR8 and on TLR7 were 5.91, less than 4.00 and less than 4.00, respectively.
For `Nc1nc2cc(-c3cc[nH]n3)ccc2c2cn(CCc3ccccn3)nc12` [Example 163], the negative logarithm of the EC50 (pEC50) with THP-1 cells (setting [1]) is 7.22; on TLR8, less than 4.00; on TLR7, less than 4.00.
For the compound `Nc1nc2cc(-c3cc[nH]n3)ccc2c2cn(CC(=O)Nc3ccccc3F)nc12` [Example 164], the pEC50 in the assay with THP-1 cells (setting [1]) was 6.60; at TLR8 it was less than 4.00; on TLR7, less than 4.00.
In the case of `Nc1nc2cc(-c3cc[nH]n3)ccc2c2cn(Cc3ccncc3)nc12` [Example 165], the figures for the negative-log EC50 (pEC50) in the assay with THP-1 cells (setting [1]), at TLR8 and at TLR7 were 6.85, 4.00 to 4.70 and less than 4.00, respectively.
In the case of `Cc1cc(C)n(CCn2cc3c(n2)c(N)nc2cc(-c4cc[nH]n4)ccc23)n1` [Example 166], the results for the pEC50 in the assay with THP-1 cells (setting [1]), at TLR8 and at TLR7 were 6.51, less than 4.00 and less than 4.00, respectively.
On to `Nc1nc2cc(-c3cc[nH]n3)ccc2c2cn(Cc3cccnc3)nc12` [Example 167], for which the negative-log EC50 (pEC50) is 6.82 in the assay on THP-1 cells (setting [1]), less than 4.00 at TLR8 and less than 4.00 at TLR7.
In the case of `Nc1nc2cc(-c3cc[nH]n3)ccc2c2cn(Cc3cscn3)nc12` [Example 168], the pEC50 in the assay on THP-1 cells (setting [1]) is 6.70; on TLR8, 4.00 to 4.70; on TLR7, less than 4.00.
In the case of `Nc1nc2cc(-c3cc[nH]n3)ccc2c2cn(Cc3nc(-c4ccccc4)no3)nc12` [Example 169], the negative logarithm of the EC50 (pEC50) is 6.41 with THP-1 cells (setting [1]), 4.00 to 4.70 on TLR8 and less than 4.00 on TLR7.
On to `CS(=O)(=O)CCn1cc2c(n1)c(N)nc1cc(-c3cc[nH]n3)ccc12` [Example 170], for which the results for the negative-log EC50 (pEC50) in the assay on THP-1 cells (setting [1]), on TLR8 and on TLR7 were 5.70, less than 4.00 and less than 4.00, respectively.
With `CS(=O)(=O)CCCn1cc2c(n1)c(N)nc1cc(-c3cc[nH]n3)ccc12` [Example 171], the negative-log EC50 (pEC50) is 6.22 with THP-1 cells (setting [1]), less than 4.00 on TLR8 and less than 4.00 at TLR7.
Take `Nc1nc2cc(-c3cc[nH]n3)ccc2c2cn(Cc3nnc(-c4ccccc4)o3)nc12` [Example 172]: the pEC50 was 6.68 in the assay on THP-1 cells (setting [1]), less than 4.00 on TLR8 and less than 4.00 at TLR7.
Take `Cc1cc(Cn2cc3c(n2)c(N)nc2cc(-c4cc[nH]n4)ccc23)no1` [Example 173]: the results for the pEC50 with THP-1 cells (setting [1]), at TLR8 and at TLR7 were 6.68, 4.70 to 6.00 and less than 4.00, respectively.

Usually pEC50 stands for the negative decadic logarithm of the EC50, by convention in mol/L.
